Assay results: publication PMC8237303 (Heliyon, 2021)

Assays:
[1] = tested on: GABA A receptor (Agonist site); test: [3H]-Muscimol binding assay; conditions: 0.1 mM l-menthol; Rat cerebellum
[2] = biological target: Vasopressin V2 receptor (Human) (Homo sapiens, UniProt P30518); test: [3H]-Vasopressin, 8-L-Arginine binding assay; conditions: 0.1 mM l-menthol; Human recombinant
[3] = biological target: α2C-Adrenergic receptor (Human) (Homo sapiens, UniProt P18825); test: [3H]-Rauwolscine hydrochloride binding assay; conditions: 0.1 mM l-menthol; Human recombinant
[4] = biological target: α1B-Adrenergic receptor (Rattus norvegicus, UniProt P15823); test: [3H]-Prazosin binding assay; conditions: 0.1 mM l-menthol; Rat liver
[5] = biological target: Dopamien D1 receptor (Human) (Homo sapiens, UniProt P21728); test: [3H]–SCH–23390 hydrochloride binding assay; conditions: 0.1 mM l-menthol; Human recombinant
Sequence of Dopamien D1 receptor (Human) (P21728 whole entry): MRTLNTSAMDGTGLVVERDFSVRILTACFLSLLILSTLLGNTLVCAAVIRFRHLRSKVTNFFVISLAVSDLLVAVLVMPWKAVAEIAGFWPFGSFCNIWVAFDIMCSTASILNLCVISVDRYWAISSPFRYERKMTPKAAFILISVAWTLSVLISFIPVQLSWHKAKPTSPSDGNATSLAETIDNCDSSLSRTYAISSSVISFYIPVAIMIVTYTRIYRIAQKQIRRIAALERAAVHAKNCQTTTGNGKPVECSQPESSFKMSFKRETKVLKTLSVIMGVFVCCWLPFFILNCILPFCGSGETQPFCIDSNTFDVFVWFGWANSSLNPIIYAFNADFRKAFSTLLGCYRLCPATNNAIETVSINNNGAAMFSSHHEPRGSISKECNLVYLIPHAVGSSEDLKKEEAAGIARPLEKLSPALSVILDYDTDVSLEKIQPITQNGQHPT

[6] = tested on: Glutamate receptor (NMDA agonist site); test: [3H]-CGP-39653 binding assay; conditions: 0.1 mM l-menthol; Rat cerebral cortex
[7] = biological target: Histamine H3 receptor (Human) (Homo sapiens, UniProt Q9Y5N1); test: N-alpha-[3H]-Methylhistamine, Dihydrochloride binding assay; conditions: 0.1 mM l-menthol; Human recombinant
[8] = tested on: GABA transporter; test: gamma-[3H]-Aminobutyric Acid; format: binding; conditions: 0.1 mM l-menthol; Rat cerebral cortex; in the presence of isoguvacine hydrochloride and S (−)-baclofen hydrochloride
[9] = biological target: Dopamine D4.2 receptor (Human) (Homo sapiens, UniProt P21917, DEL265-296); test: [3H]-Spiperone binding assay; conditions: 0.1 mM l-menthol; Human recombinant
[10] = biological target: Vasopressin V1B receptor (Human) (Homo sapiens, UniProt P47901); test: [3H]-Vasopressin, 8-L-Arginine binding assay; conditions: 0.1 mM l-menthol; Human recombinant
[11] = biological target: VIP 1 receptor (Human) (Homo sapiens, UniProt P32241); test: [125I]-Vasoactive Intestinal Polypeptide binding assay; conditions: 0.1 mM l-menthol; Human receptor (Non-recombinant)
[12] = tested on: 88 different ligands for specific biomolecules; test: Binding assay, 88 different ligands; conditions: 0.1 mM l-menthol
[13] = biological target: Angiotensin AT2 receptor (Human) (Homo sapiens, UniProt P50052); test: [125I]-CGP-42112A binding assay; conditions: 0.1 mM l-menthol; Human recombinant
Sequence of Angiotensin AT2 receptor (Human) (P50052 whole entry): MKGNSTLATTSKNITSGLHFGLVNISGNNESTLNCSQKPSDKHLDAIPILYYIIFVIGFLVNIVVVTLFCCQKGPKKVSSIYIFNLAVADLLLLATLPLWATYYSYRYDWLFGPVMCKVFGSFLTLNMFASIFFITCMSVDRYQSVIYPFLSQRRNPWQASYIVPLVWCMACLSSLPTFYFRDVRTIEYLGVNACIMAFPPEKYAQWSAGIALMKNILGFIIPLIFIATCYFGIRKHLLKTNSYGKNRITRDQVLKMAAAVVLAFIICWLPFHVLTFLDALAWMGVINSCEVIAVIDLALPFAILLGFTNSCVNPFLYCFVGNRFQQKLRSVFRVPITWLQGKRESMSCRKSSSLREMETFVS

[14] = biological target: α1A-Adrenergic receptor (Rattus norvegicus, UniProt P43140); test: [3H]-Prazosin binding assay; conditions: 0.1 mM l-menthol; Rat submandibular gland
Sequence of α1A-Adrenergic receptor (P43140 whole entry): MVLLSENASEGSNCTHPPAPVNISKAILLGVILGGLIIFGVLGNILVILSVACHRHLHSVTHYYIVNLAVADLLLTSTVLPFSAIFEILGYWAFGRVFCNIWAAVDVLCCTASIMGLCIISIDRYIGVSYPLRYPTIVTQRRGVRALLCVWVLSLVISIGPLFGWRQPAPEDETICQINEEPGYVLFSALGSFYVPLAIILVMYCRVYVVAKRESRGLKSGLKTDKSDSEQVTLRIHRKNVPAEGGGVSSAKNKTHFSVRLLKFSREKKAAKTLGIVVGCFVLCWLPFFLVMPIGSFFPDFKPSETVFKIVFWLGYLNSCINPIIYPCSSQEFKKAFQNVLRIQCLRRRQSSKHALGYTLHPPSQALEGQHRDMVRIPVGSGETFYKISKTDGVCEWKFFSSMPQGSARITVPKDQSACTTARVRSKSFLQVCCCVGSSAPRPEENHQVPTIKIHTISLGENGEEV

[15] = tested on: Ca channel (Type L, Phenylalkylamine); test: [3H]-; format: binding; conditions: 0.1 mM l-menthol; Rat cerebral cortex
[16] = biological target: Adenosine transporter (Human) (Homo sapiens, UniProt Q99808); test: [3H]-S-; format: binding; conditions: 0.1 mM l-menthol; Human receptor
Sequence of Adenosine transporter (Human) (Q99808 whole entry): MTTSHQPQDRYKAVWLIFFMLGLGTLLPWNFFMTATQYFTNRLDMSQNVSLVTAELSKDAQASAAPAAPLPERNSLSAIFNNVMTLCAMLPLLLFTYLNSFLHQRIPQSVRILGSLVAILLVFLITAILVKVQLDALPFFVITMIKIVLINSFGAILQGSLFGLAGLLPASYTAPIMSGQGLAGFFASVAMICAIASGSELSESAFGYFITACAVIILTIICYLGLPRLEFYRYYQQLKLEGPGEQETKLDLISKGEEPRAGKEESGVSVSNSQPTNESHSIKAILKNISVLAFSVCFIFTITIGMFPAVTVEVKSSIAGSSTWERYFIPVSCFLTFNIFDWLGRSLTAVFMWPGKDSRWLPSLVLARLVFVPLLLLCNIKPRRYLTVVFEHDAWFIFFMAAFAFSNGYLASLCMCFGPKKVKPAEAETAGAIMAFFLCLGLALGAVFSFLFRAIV

[17] = biological target: α2B-Adrenergic receptor (Human) (Homo sapiens, UniProt P18089); format: binding
Sequence of α2B-Adrenergic receptor (Human) (P18089 whole entry): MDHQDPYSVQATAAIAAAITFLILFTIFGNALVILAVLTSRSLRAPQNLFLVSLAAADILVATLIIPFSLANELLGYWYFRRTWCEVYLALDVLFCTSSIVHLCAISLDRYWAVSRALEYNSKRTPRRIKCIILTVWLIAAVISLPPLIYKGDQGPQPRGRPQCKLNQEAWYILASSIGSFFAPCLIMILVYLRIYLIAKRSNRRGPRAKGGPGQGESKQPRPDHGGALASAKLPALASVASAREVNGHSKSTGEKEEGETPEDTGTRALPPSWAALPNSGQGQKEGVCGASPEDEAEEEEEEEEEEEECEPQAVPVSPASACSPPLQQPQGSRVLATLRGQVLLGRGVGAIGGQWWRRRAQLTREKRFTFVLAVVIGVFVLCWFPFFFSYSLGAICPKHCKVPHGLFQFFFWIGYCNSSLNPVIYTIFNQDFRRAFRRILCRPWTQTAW

[18] = biological target: Histamine H1 receptor (Human) (Homo sapiens, UniProt P35367); test: [3H]-Pyrilamine binding assay; conditions: 0.1 mM l-menthol; Human recombinant
Sequence of Histamine H1 receptor (Human) (P35367 whole entry): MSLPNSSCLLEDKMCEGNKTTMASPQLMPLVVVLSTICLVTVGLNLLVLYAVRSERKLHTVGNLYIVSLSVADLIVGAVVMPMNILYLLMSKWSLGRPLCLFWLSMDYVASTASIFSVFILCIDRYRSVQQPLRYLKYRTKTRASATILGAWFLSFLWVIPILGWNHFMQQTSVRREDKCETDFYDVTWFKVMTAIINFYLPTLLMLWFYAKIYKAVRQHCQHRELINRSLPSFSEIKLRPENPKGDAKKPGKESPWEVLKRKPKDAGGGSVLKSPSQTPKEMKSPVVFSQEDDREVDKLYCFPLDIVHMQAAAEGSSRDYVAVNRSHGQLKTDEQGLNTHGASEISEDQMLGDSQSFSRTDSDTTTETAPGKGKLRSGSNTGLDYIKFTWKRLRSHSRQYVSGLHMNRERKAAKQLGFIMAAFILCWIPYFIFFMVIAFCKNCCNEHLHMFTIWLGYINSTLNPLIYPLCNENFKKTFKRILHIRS

[19] = biological target: Adenosine A2a receptor (Human) (Homo sapiens, UniProt P29274); test: [3H]-CGS21680 binding assay; conditions: 0.1 mM l-menthol; Human recombinant
Sequence of Adenosine A2a receptor (Human) (P29274 whole entry): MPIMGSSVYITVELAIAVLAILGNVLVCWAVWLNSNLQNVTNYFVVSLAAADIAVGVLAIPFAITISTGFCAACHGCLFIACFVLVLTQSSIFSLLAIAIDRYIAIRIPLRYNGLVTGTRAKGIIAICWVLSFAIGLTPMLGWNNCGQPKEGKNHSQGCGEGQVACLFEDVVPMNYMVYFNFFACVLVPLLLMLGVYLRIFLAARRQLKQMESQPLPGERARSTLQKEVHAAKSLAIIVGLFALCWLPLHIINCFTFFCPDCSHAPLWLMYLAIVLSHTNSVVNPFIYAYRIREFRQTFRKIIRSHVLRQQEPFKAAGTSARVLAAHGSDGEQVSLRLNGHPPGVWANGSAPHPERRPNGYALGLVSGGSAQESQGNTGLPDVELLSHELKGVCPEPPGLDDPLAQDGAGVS

[20] = biological target: Histamine H2 receptor (Human) (Homo sapiens, UniProt P25021); test: [3H]-Tiotidine binding assay; conditions: 0.1 mM l-menthol; Human recombinant
[21] = tested on: Nicotinic receptor (Human); test: [3H]-; format: binding; conditions: 0.1 mM l-menthol; Human receptor (Non-recombinant)
[22] = biological target: Muscarinic M4 receptor (Human) (Homo sapiens, UniProt P08173); test: [3H]-Scopolamine Methyl Chloride binding assay; conditions: 0.1 mM l-menthol; Human recombinant
[23] = tested on: Na Channel; format: binding; conditions: 0.1 mM l-menthol; Rat whole brain
[24] = tested on: IP3 receptor; test: D-[3H]-Inositol-1,4,5-Triphosphate binding assay; conditions: 0.1 mM l-menthol; Rat cerebellum
[25] = tested on: Imidazoline receptor (Central); test: [3H]RX 781094; format: binding; conditions: 0.1 mM l-menthol; Rat cerebral cortex
[26] = biological target: Dopamine D5 receptor (Human) (Homo sapiens, UniProt P21918); test: [3H]SCH 23390 binding assay; conditions: 0.1 mM l-menthol; Human recombinant
[27] = biological target: Dopamine D2 receptor short isoform (Human) (Homo sapiens, UniProt P14416); test: [3H]-Spiperone binding assay; conditions: 0.1 mM l-menthol; Human recombinant
[28] = biological target: Cannabinoid CB1 receptor (Human) (Homo sapiens, UniProt P21554); test: [3H]-CP-55,940 binding assay; conditions: 0.1 mM l-menthol; Human recombinant
Sequence of Cannabinoid CB1 receptor (Human) (P21554 whole entry): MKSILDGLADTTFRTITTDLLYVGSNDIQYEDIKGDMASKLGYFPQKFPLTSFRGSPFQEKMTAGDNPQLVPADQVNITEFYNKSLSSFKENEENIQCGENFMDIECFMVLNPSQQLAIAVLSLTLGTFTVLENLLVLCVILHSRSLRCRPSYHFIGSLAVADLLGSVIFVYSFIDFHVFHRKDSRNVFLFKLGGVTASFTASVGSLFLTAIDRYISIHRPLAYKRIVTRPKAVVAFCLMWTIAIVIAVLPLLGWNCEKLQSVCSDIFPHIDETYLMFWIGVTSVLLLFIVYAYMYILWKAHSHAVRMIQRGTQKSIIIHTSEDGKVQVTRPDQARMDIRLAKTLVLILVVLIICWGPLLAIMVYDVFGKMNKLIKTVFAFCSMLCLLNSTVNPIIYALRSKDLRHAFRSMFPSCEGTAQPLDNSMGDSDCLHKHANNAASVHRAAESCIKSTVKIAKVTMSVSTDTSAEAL

[29] = tested on: GABA A receptor (Benzodiazepine site); test: [3H]-Flunitrazepam binding assay; conditions: 0.1 mM l-menthol; Rat whole brain
[30] = biological target: Neurokinin NK1 receptor (Human) (Homo sapiens, UniProt P25103); test: [125I]-Substance P binding assay; conditions: 0.1 mM l-menthol; Human recombinant
[31] = tested on: K Channel KATP; test: [3H]-Glybenclamide binding assay; conditions: 0.1 mM l-menthol; Rat whole brain
[32] = biological target: Adenosine A3 receptor (Human) (Homo sapiens, UniProt P0DMS8); test: [125I]-AB-MECA binding assay; conditions: 0.1 mM l-menthol; Human recombinant
[33] = biological target: Muscarinic M2 receptor (Human) (Homo sapiens, UniProt P08172); test: [3H]-Scopolamine Methyl Chloride binding assay; conditions: 0.1 mM l-menthol; Human recombinant
Sequence of Muscarinic M2 receptor (Human) (P08172 whole entry): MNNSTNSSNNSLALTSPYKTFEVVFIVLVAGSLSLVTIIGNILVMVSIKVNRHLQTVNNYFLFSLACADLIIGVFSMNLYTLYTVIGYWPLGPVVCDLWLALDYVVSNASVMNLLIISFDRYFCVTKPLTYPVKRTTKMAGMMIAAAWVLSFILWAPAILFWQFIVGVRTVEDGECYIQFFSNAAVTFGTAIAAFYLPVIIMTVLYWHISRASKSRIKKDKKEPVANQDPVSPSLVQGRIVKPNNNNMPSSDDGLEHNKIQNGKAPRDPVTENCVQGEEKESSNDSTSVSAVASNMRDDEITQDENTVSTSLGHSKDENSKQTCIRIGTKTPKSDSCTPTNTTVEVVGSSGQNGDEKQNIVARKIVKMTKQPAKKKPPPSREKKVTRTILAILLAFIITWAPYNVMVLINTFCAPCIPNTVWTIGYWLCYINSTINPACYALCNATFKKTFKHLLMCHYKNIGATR

[34] = biological target: Norepinephrine transporter (Human) (Homo sapiens, UniProt P23975); test: [3H]-Nisoxetine hydrochloride binding assay; conditions: 0.1 mM l-menthol; Human recombinant
[35] = biological target: GABA B receptor (Rattus norvegicus, UniProt Q9Z0U4); test: gamma-[3H]-Aminobutyric Acid; format: binding; conditions: 0.1 mM l-menthol; Rat cerebellum
[36] = biological target: Opiate ORL1 receptor (Human) (Homo sapiens, UniProt P41146); test: [3H]-Nociceptin binding assay; conditions: 0.1 mM l-menthol; Human recombinant
[37] = biological target: β1-Adrenergic receptor (Human) (Homo sapiens, UniProt P08588); test: [3H]-; format: binding; conditions: 0.1 mM l-menthol; Human recombinant
[38] = biological target: Muscarinic M5 receptor (Human) (Homo sapiens, UniProt P08912); test: [3H]-Scopolamine Methyl Chloride binding assay; conditions: 0.1 mM l-menthol; Human recombinant
Sequence of Muscarinic M5 receptor (Human) (P08912 whole entry): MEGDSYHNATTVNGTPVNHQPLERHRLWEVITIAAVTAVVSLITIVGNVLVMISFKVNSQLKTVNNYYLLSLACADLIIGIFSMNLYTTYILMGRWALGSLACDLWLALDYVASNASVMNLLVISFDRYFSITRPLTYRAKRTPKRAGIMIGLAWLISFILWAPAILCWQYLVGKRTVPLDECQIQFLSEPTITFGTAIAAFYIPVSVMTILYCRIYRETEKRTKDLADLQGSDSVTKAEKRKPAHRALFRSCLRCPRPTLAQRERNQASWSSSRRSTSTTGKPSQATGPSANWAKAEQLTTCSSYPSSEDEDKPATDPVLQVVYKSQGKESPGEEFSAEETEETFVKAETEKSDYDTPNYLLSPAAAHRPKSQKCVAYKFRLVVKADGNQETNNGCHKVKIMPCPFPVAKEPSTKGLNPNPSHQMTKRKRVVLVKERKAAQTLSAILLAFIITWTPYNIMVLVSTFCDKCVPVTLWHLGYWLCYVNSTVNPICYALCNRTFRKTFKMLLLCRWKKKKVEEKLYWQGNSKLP

[39] = biological target: Cannabinoid CB2 receptor (Human) (Homo sapiens, UniProt P34972); test: [3H]-CP-55,940 binding assay; conditions: 0.1 mM l-menthol; Human recombinant
[40] = biological target: Prostanoid EP2 receptor (Human) (Homo sapiens, UniProt P43116); test: [3H]-Prostaglandin E2 binding assay; conditions: 0.1 mM l-menthol; Human recombinant
[41] = biological target: Neuropeptide Y1 receptor (Human) (Homo sapiens, UniProt P25929); test: [125I]-Peptide YY; format: binding; conditions: 0.1 mM l-menthol; Human receptor (Non-recombinant)
[42] = biological target: Neuropeptide Y2 receptor (Human) (Homo sapiens, UniProt P49146); test: [125I]-Peptide YY; format: binding; conditions: 0.1 mM l-menthol; Human receptor (Non-recombinant)

Sequence of Vasopressin V2 receptor (Human) (P30518 whole entry): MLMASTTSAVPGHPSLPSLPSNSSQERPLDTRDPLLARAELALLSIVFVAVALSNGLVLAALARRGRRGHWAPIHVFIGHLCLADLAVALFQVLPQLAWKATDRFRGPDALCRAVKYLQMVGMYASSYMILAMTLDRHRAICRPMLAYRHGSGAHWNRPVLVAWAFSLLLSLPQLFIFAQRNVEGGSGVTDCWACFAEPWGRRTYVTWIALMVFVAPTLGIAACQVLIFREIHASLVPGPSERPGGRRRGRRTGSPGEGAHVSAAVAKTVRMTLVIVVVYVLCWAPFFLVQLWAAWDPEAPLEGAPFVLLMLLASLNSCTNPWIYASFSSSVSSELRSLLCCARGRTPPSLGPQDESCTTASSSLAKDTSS

## CC(C)[C@@H]1CC[C@@H](C)C[C@H]1O [l-menthol]
[1]
  Inhibition by l-Menthol (%): 0.2%
[2]
  Inhibition by l-Menthol (%): 13.53%
[3]
  Inhibition by l-Menthol (%): 7.75%
[4]
  Inhibition by l-Menthol (%): 1.76%
[5]
  Inhibition by l-Menthol (%): 0%
[6]
  Inhibition by l-Menthol (%): 0%
[7]
  Inhibition by l-Menthol (%): 0%
[8]
  Inhibition by l-Menthol (%): 10.09%
[9]
  Inhibition by l-Menthol (%): 28.19%
[10]
  Inhibition by l-Menthol (%): 0%
[11]
  Inhibition by l-Menthol (%): 2.48%
[12]
  Inhibition of the binding of 32 isotope-labeled ligands (Table 3 (b)): did not measurably inhibit
  Inhibition rates, 9 isotope-labeled ligands (Table 3 (a)): < 1%
[13]
  Inhibition by l-Menthol (%): 0%
[14]
  Inhibition by l-Menthol (%): 5.13%
[15]
  Inhibition by l-Menthol (%): 24.78%
[16]
  Inhibition by l-Menthol (%): 0.68%
[17]
  Inhibition by l-Menthol (%): 2.87%
[18]
  Inhibition by l-Menthol (%): 0%
[19]
  Inhibition by l-Menthol (%): 21.62%
[20]
  Inhibition by l-Menthol (%): 21.17%
[21]
  Inhibition by l-Menthol (%): 0%
[22]
  Inhibition by l-Menthol (%): 0%
[23]
  Inhibition by l-Menthol (%): 14.04%
[24]
  Inhibition by l-Menthol (%): 0.12%
[25]
  Inhibition by l-Menthol (%): 6.53%
[26]
  Inhibition by l-Menthol (%): 0%
[27]
  Inhibition by l-Menthol (%): 0%
[28]
  Inhibition by l-Menthol (%): 9.12%
[29]
  Inhibition by l-Menthol (%): 1.37%
[30]
  Inhibition by l-Menthol (%): 3.74%
[31]
  Inhibition by l-Menthol (%): 2.08%
[32]
  Inhibition by l-Menthol (%): 8.22%
[33]
  Inhibition by l-Menthol (%): 0.37%
[34]
  Inhibition by l-Menthol (%): 7.89%
[35]
  Inhibition by l-Menthol (%): 1.1%
[36]
  Inhibition by l-Menthol (%): 5.76%
[37]
  Inhibition by l-Menthol (%): 0%
[38]
  Inhibition by l-Menthol (%): 0%
[39]
  Inhibition by l-Menthol (%): 8.57%
[40]
  Inhibition by l-Menthol (%): 0.66%
[41]
  Inhibition by l-Menthol (%): 0.86%
[42]
  Inhibition by l-Menthol (%): 0%
